Data: US6391303B1, “Methods and compositions for inducing oral tolerance in mammals” (Emisphere Technologies, Inc., priority 1996, dated 2002)

How the values were obtained:
[1] = system: DTH response to ovalbumin; test: DTH footpad thickness assay in mice fed ovalbumin with delivery agent; type: in vivo, BALB/c mice; conditions: single oral dose 1.0 mg ovalbumin with or without 600 mg/kg delivery agent; SC challenge ovalbumin/CFA week 3; versus unfed
Procedure: A stock solution of ovalbumin was prepared by dissolving Ovalbumin, 10 mg/ml in 10 mM phosphate buffer (pH 7.4). This solution was diluted 2-fold and used to provide 1.0 mg in a volume of 0.2 ml. Five BALB/c mice were administered a single oral dose of 1.0 mg ovalbumin per mouse with 600 mg/kg of E702 delivery agent.
Challenge was achieved by subcutaneous (SC) injection of 0.1 mg ovalbumin with 50% Complete Freund's Adjuvant (CFA) at week 3. DTH assay was performed as described in Examples 1 and 8. Assay data for Example 10 are found in FIG. 9.

[2] = system: Experimental Autoimmune Encephalomyelitis (EAE); conditions: for mean day of onset of paralysis: single oral dose 1.0 mg MBP alone or with delivery agent, day after challenge; for clinical disease (Mean Clinical Score) of EAE: single oral dose 1.0 mg MBP with delivery agent, footpad challenge 0.05 mg MBP/CFA, scale 0 to 5
Procedure: Two days after the (last) oral dose, all groups were challenged in the footpad with 0.05 mg of MBP emulsified with Complete Freund's Adjuvant containing Mycobacterium tuberculosis H37Ra, 4 mg/ml. Clinical signs of disease were observed starting on Day 11 after the challenge and rated on a scale of 0 (no disease) to 5 (death).

[3] = system: anti-SRBC serum IgM antibodies; test: Direct hemagglutination assay for anti-SRBC serum IgM in mice fed SRBC with delivery agent; type: in vivo, BALB/c mice
Procedure: (§1) Five female BALB/c mice were fed a single dose suspension of 2.5×10^9 sheep red blood cells (SRBC)+E94 (600 mg/Kg) in Phosphate Buffered Saline (PBS), 0.1 M phosphate and 0.15 M sodium chloride, pH 7.2. Seven days after completion of oral dosing, mice were primed by footpad injection of 1×10^7 SRBC. They were bled on day 14. On day 21 the mice were tested in a Delayed Type Hypersensitivity (DTH) test through challenge by injection in the footpad not previously used in priming with 1×10^8 SRBC. Footpad thickness was measured before and 24 hours after challenge using a Vernier caliper. On day 28 they were bled again. Sera were placed into Eppendorf tubes and assayed for anti-SRBC IgM (days 14 and 28) and anti-SRBC IgG (day 28) by the direct and indirect hemagglutination assays, respectively. (See assay description below.) Prior to assaying, the samples were heat inactivated at 56/C. for 60 minutes. Assay data for Example 1 are found in FIG. 2. […]
a) Dilute 10μ of sera with 190μ of PBS, pH 7.2 (1/20) b) On a rigid, U-bottom microtiter plate, mark wells across the rows for dilutions of samples 40; 80; 160; . . . […]

[4] = system: anti-influenza antibodies (anti-HA); test: Hemagglutination inhibition assay of pooled sera of primed mice fed influenza antigen with delivery agent; conditions: primed s.c. 5 μg vaccine day 0, oral 60 μg influenza antigen + 750 mg/kg delivery agent day 21
Procedure: Sera were collected every two weeks, pooled, and assayed for hemagglutination inhibition.
Hemagglutination Inhibition Assay for Anti-HA Antibodies:
If duplicates differ by one dilution, take the average. If they differ by more than one dilution, repeat the assay.
14) This titer provides the dilution of virus suspension which contains one HA unit per 50 μl. Divide this titer by 8 to get the dilution which will contain 4 HA units per 0.025 μl for the actual Hemagglutination Inhibition (HI) assay.
RDE* treat all test sera, reference sera and negative control sera on the day before the HI assay will be done.
Use flexible plates. Mark columns for duplicate dilution series of each test and control serum sample (normal naive serum and positive reference anti-serum). The plate should have 11 columns per row for dilutions plus column 12 for RBC alone.
To all wells, except column 1, add 25 μl of PBS.
To column 1 wells, add 50 μl of the appropriate RDE-treatment serum (test, positive, or negative control) sample.
Serially 2× dilute 25 μl of the sera across to column 11, mixing 7× per dilution.
Add 25 μl of diluted virus (containing 4 HA units per 25 μl) to all serum dilution wells, columns 1-11. Add 25 μl of PBS to column 21.
Cover plate, mix briefly on shaker, and incubate at r.t. for 30 minutes.7. […]
Read patterns immediately. […]

[5] = system: anti-ovalbumin IgG antibodies; test: ELISA for serum anti-ovalbumin IgG in mice fed ovalbumin with delivery agent and challenged with ovalbumin in CFA; type: in vivo, BALB/c mice; conditions: for serum anti-ovalbumin IgG titer at week 4: single oral dose 25 mg ovalbumin with or without 600 mg/kg delivery agent, SC challenge with ovalbumin/CFA week 1, versus unfed; for serum anti-ovalbumin IgG titer at week 12: two oral doses 1 mg ovalbumin (weeks 0 and 4) with or without 600 mg/kg delivery agent, IM challenge with ovalbumin/CFA week 9
Procedure: A stock solution was prepared by dissolving Ovalbumin, 10 mg/ml, in 10 mM phosphate buffer (pH 7.4). This solution was diluted with buffer to provide 1.0 mg in a volume of 0.2 ml. Ten BALB/c female mice were administered two oral doses of 1 mg ovalbumin per mouse with 600 mg/kg of E94 delivery agent at weeks 0 and 4.
Systemic challenge was achieved by intramuscular (IM) injection of 2 mg/ml ovalbumin with 50% Complete Freund's Adjuvant (CFA) at week 9. Serum samples were collected at week 12 and assayed for anti-ovalbumin total IgG isotypes as described in Example 4 utilizing ovalbumin antigen instead of HA antigen. Assay data for Example 5 are found in FIG. 5.
A stock solution of ovalbumin was prepared by dissolving Ovalbumin, 125 mg/ml, in 10 mM phosphate buffer (pH 7.4). This solution was used to provide 25 mg in a volume of 0.2 ml. Five BALB/c mice were administered a single oral dose of 25 mg ovalbumin per mouse with 600 mg/kg of E94 delivery agent.
Challenge was achieved by subcutaneous (SC) injection of 0.1 mg ovalbumin with 50% Complete Freund's Adjuvant (CFA) at week 1. Serum samples were collected at week 4 and assayed for anti-ovalbumin total IgG isotypes as described in Example 5. Assay data for Example 6 are found in FIG. 6.

[6] = system: anti-SRBC serum IgG antibodies; test: Indirect hemagglutination assay for anti-SRBC serum IgG in mice fed SRBC with delivery agent; type: in vivo, BALB/c mice
Procedure: as §1, with “Sera were placed into Eppendorf tubes and assayed for anti-SRBC IgM (days 14 and 28) and anti-SRBC IgG (day 28) by the direct and indirect hemagglutination assays, respectively.” left out
a) In a 15 ml tube, add 11μ of goat anti-mouse IgG (Fcy specific) (2.3 mg/ml) to 5.05 ml PBS (1/460 dilution; approximate amount needed per plate) In a second tube, add 4μ of goat anti-rabbit IgG (Fc specific) to 1.8 ml of PBS approximate amount needed (per plate) […]

[7] = system: DTH response to SRBC; test: Delayed Type Hypersensitivity (DTH) footpad thickness test in mice fed SRBC with delivery agent; type: in vivo, BALB/c mice; conditions: single oral dose 2.5×10^9 SRBC + delivery agent 600 mg/Kg; versus unfed control and SRBC alone
Procedure: Five female BALB/c mice were fed a single dose suspension of 2.5×10^9 sheep red blood cells (SRBC)+E94 (600 mg/Kg) in Phosphate Buffered Saline (PBS), 0.1 M phosphate and 0.15 M sodium chloride, pH 7.2. Seven days after completion of oral dosing, mice were primed by footpad injection of 1×10^7 SRBC. They were bled on day 14. On day 21 the mice were tested in a Delayed Type Hypersensitivity (DTH) test through challenge by injection in the footpad not previously used in priming with 1×10^8 SRBC. Footpad thickness was measured before and 24 hours after challenge using a Vernier caliper. On day 28 they were bled again. Sera were placed into Eppendorf tubes and assayed for anti-SRBC IgM (days 14 and 28) and anti-SRBC IgG (day 28) by the direct and indirect hemagglutination assays, respectively. (See assay description below.) Prior to assaying, the samples were heat inactivated at 56/C. for 60 minutes. Assay data for Example 1 are found in FIG. 2.
Five female BALB/c mice were fed a single dose suspension of 2.5×10^9 sheep red blood cells (SRBC)+[…] (600 mg/Kg) as described in Example 7. Seven days after completion of oral dosing, mice were primed by footpad injection of 1×10^7 SRBC. On day 14. footpad thickness was measured according to the Delayed Type Hypersensitivity (DTH) method outlined in Example 1. The DTH data for Example 8 are found in FIG. 8. […]

[8] = single oral dose SRBC + delivery agent 600 mg/Kg, versus unfed control (Comparative Example D)

| Molecule | DTH response (footpad thickness), week 5 [1] | mean day of onset of paralysis [2] [days] | clinical disease (Mean Clinical Score) of EAE [2] | serum anti-ovalbumin IgG titer at week 4 [5] | serum anti-ovalbumin IgG titer at week 12 [5] | DTH response (footpad thickness), Day 14 [7] | other results |
| --- | --- | --- | --- | --- | --- | --- | --- |
| COc1cccc(C(=O)Nc2ccc(CCC(=O)O)cc2)c1OC [E702, 3-[4-(N-2,3-dimethoxybenzoyl)]aminophenyl propionic acid] | significantly suppressed response in the DTH | 15 | suppression of clinical disease | – | – | – | – |
| O=C(N[C@@H](Cc1ccccc1)C(=O)O)c1ccccc1O [E94, N-salicyloyl phenylalanine] | – | 15 | suppression of clinical disease | significantly suppressed serum anti-Ova IgG titers | significantly suppressed compared to both unfed and antigen-alone fed | – | anti-SRBC IgM titer, Day 14 ([3]; single oral dose 2.5×10^9 SRBC + delivery agent 600 mg/Kg, primed day 7, versus unfed control and SRBC alone): suppressed IgM on Day 14 relative to unfed control (Comparative Example D) significantly more than without delivery agent; anti-SRBC IgM titer, Day 28 [3, 8]: still lower than that for the Comparative Example D control (90% significance); suppression of anti-influenza antibody production (HI titer) relative to control fed only influenza antigen [4]: more than 2 fold; anti-SRBC IgG titer, Day 28 [6, 8]: lower than the Comparative Example D control (90% significance) |
| O=C(O)CCCc1ccc(NS(=O)(=O)c2ccccc2)cc1 [E198, 4-[4-(N-benzenesulfonyl)]aminophenyl butyric acid] | – | – | – | – | – | suppressed the DTH response on Day 14 relative to unfed control (Comparative Example L) significantly more than without delivery agent | – |
| Ovalbumin: Ovalbumin antigen fed orally alone, without delivery agent, as comparative example | not suppressed | – | – | suppression was not statistically significant | the same as in mice given the intramuscular dose alone | – | – |
| COc1ccccc1C(=O)Nc1ccc(CCC(=O)O)cc1 [E594, 3-[4-(N-2 methoxybenzoyl)]aminophenyl propionic acid] | – | – | – | – | – | suppressed the DTH response on Day 14 relative to unfed control (Comparative Example L) significantly more than without delivery agent | anti-SRBC IgG titer, Day 14 ([6]; single oral dose 2.5×10^9 SRBC + delivery agent 600 mg/Kg, versus unfed control and SRBC alone): suppressed IgG on Day 14 relative to unfed control (Comparative Example K) significantly more than without delivery agent |
| MBP: Myelin Basic Protein, encephalitogenic antigen fed orally alone as comparison in the EAE model (protein, UniProt P02686 1-304, looked up) Myelin basic protein: MGNHAGKRELNAEKASTNSETNRGESEKKRNLGELSRTTSEDNEVFGEADANQNNGTSSQDTAVTDSKRTADPKNAWQDAHPADPGSRPHLIRLFSRDAPGREDNTFKDRPSESDELQTIQEDSAATSESLDVMASQKRPSQRHGSKYLATASTMDHARHGFLPRHRDTGILDSIGRFFGGDRGAPKRGSGKDSHHPARTAHYGSLPQKSHGRTQDENPVVHFFKNIVTPRTPPPSQGKGRGLSLSRFSWGAEGQRPGFGYGGRASDYKSAHKGFKGVDAQGTLSKIFKLGGRDSRSGSPMARR | – | 13 | – | – | – | – | – |
